Reference: US8912221B2, “Biaryl amide derivatives” (Hoffmann-La Roche Inc., priority 2010, dated 2014)

Key:
Bradykinin-1 receptor [1] = molecular target: T1, Bradykinin-1 receptor (Homo sapiens (Human), UniProt P46663); experiment: Calcium Mobilization Assay; assay type: cell-based; settings: GeneBLAzer Bradykinin (B1)-NFAT-bla CHO-K1 cells; antagonist activity, FLIPR; read-out: Ca mobilization IC50
Method: Calcium Mobilization Assay
GeneBLAzer® Bradykinin (B1)-NFAT-bla CHO-K1 cells (from Invitrogen) stably overexpressing the human bradykinin 1 receptor were cultured in DMEM (high glucose) supplemented with 10% dialysed FBS, 1% NEAA (non essential amino acids) 1% penicillin/streptomycin, 1% G418 and 0.1 mg/ml zeocin.
For the assay cells were grown overnight in 384-well black clear flat bottom polystyrene plates (Costar) at 37° C. at 5% CO2. After washing with DMEM, 20 mM Hepes, 2.5 mM probenecid, 0.1% BSA (DMEM assay buffer) cells were loaded with 4 μM Fluo-4 in the same DMEM assay buffer for 2 hours at 30° C. Excess dye was removed and cells were washed with DMEM assay buffer. 384-well compound plates were prepared with DMEM assay buffer/0.5% DMSO with or without various concentrations of test compounds. Usually compounds were tested for agonist and antagonist activity.
Test compounds were added to the assay plate and agonist activity was monitored as fluorescence for 80 seconds with a FLIPR (488 nm excitation; 510-570 nm emission; Molecular Devices). […] Increases in intracellular calcium are reported as maximum fluorescence after agonist exposure minus basal fluorescence before exposure. Antagonist activity is indicated as inhibitor concentration required for 50% inhibition of specific calcium increases.

Bradykinin-1 receptor [2] = molecular target: T1, Bradykinin-1 receptor; experiment: Receptor Binding Assay; settings: membranes from CHO-K1 cells overexpressing Bradykinin-1 receptor; 6 nM [3H]Kallidin (Des Arg10, Leu9); read-out: B1R Binding Ki
Method: Binding assays were done with membranes from CHO-K1 cells overexpressing Bradykinin-1 receptor.
For binding, Bradykinin-1 receptor antagonist compounds were added in various concentrations in 50 mM Tris pH 7.4, 5 mM MgCl2 together with 6 nM Kallidin (Des Arg^10, Leu^9), [3,4-Prolyl-3,4-^3H(N)] (PerkinElmer, 1.85-4.44 TBq/mmol) to 40 μg membrane protein containing approximately 1 fmol Bradykinin-1 receptor and incubated for 15 min at 27° C. To determine non-specific binding 10 μM Lys-(Des-Arg^9)-Bradykinin (Bachem) was added. Membranes were harvested through GF/B (glass fiber filter; PerkinElmer) plates, equilibrated with 0.5% polyethylenimine, air dried at 50° C. for 2 hr. Radioactivity was determined by counting in a topcounter (NXT Packard). Specific binding was defined as total binding minus nonspecific binding and typically represents about 90-95% of the total binding. Antagonist activity is expressed as Ki: inhibitor concentration required for 50% inhibition of specific binding corrected for the concentration of the radioligand.

T1 sequence (P46663 whole entry): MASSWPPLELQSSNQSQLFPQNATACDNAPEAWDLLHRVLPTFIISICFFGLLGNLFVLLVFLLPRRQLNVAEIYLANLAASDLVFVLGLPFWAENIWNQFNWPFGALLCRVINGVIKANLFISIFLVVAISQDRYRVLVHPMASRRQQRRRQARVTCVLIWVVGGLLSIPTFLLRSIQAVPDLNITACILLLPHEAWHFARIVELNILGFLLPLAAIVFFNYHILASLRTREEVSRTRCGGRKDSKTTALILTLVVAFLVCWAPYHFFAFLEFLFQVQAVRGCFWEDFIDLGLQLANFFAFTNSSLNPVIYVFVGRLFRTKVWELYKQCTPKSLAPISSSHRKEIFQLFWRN

| SMILES | IC50 (Bradykinin-1 receptor [1]) | Ki (Bradykinin-1 receptor [2]) |
| --- | --- | --- |
| C[C@@H](NC(=O)C1(NC(=O)C(F)(F)F)COC1)c1ncc(-c2cc(Cl)cc(F)c2-c2nnn(C)n2)cc1F [Example 21, 3-(2,2,2-Trifluoro-acetylamino)-oxetane-3-carboxylic acid ((R)-1-{5-[5-chloro-3-fluoro-2-(2-methyl-2H-tetrazol-5-yl)-phenyl]-3-fluoro-pyridin-2-yl}-ethyl)-amide] | 1 nM | 4.3 nM |
| Cc1nc(-c2c(F)cc(Cl)cc2-c2cnc([C@@H](C)NC(=O)C3(NC(=O)c4nccn4C)COC3)c(F)c2)no1 [Example 26, 1-Methyl-1H-imidazole-2-carboxylic acid [3-((R)-1-{5-[5-chloro-3-fluoro-2-(5-methyl-[1,2,4]oxadiazol-3-yl)-phenyl]-3-fluoro-pyridin-2-yl}-ethylcarbamoyl)-oxetan-3-yl]-amide] | 490 nM | 503 nM |
| Cc1nc(-c2c(F)cc(Cl)cc2-c2cnc([C@@H](C)NC(=O)C3(NC(=O)c4cn(C)cn4)COC3)c(F)c2)no1 [Example 27, 1-Methyl-1H-imidazole-4-carboxylic acid [3-((R)-1-{5-[5-chloro-3-fluoro-2-(5-methyl-[1,2,4]oxadiazol-3-yl)-phenyl]-3-fluoro-pyridin-2-yl}-ethylcarbamoyl)-oxetan-3-yl]-amide] | 107 nM | 82.6 nM |
| Cc1nc(-c2c(F)cc(Cl)cc2-c2cnc([C@@H](C)NC(=O)C3(NC(=O)c4cccnn4)COC3)c(F)c2)no1 [Example 29, Pyridazine-3-carboxylic acid [3-((R)-1-{5-[5-chloro-3-fluoro-2-(5-methyl-[1,2,4]oxadiazol-3-yl)-phenyl]-3-fluoro-pyridin-2-yl}-ethylcarbamoyl)-oxetan-3-yl]-amide] | 9.4 nM | 14.1 nM |

Compounds with a lower IC50 (Bradykinin-1 receptor [1]), results first:

| IC50 (Bradykinin-1 receptor [1]) | Ki (Bradykinin-1 receptor [2]) | SMILES |
| --- | --- | --- |
| 0.5 nM | 1.7 nM | C[C@@H](NC(=O)C1(NC(=O)C(F)(F)F)COC1)c1ccc(-c2cc(Cl)cc(F)c2-c2nnn(C)n2)cc1F [Example 22, 3-(2,2,2-Trifluoro-acetylamino)-oxetane-3-carboxylic acid {(R)-1-[5′-chloro-3,3′-difluoro-2′-(2-methyl-2H-tetrazol-5-yl)-biphenyl-4-yl]-ethyl}-amide] |
| 0.1 nM | 1 nM | Cc1cc(C(=O)NC2(C(=O)N[C@H](C)c3ccc(-c4cc(Cl)cc(F)c4-c4nnn(C)n4)cc3F)COC2)on1 [Example 23, 3-Methyl-isoxazole-5-carboxylic acid (3-{(R)-1-[5′-chloro-3,3′-difluoro-2′-(2-methyl-2H-tetrazol-5-yl)-biphenyl-4-yl]-ethylcarbamoyl}-oxetan-3-yl)-amide] |
| 0.1 nM | 1.2 nM | Cc1cc(C(=O)NC2(C(=O)N[C@H](C)c3ccc(-c4cc(Cl)cc(F)c4-c4noc(C)n4)cc3F)COC2)on1 [Example 24, 3-Methyl-isoxazole-5-carboxylic acid (3-{(R)-1-[5′-chloro-3,3′-difluoro-2′-(5-methyl-[1,2,4]oxadiazol-3-yl)-biphenyl-4-yl]-ethylcarbamoyl}-oxetan-3-yl)-amide] |
| 0.4 nM | 1 nM | Cc1nc(-c2c(F)cc(Cl)cc2-c2cnc([C@@H](C)NC(=O)C3(NC(=O)c4ccnnc4)COC3)c(F)c2)no1 [Example 25, Pyridazine-4-carboxylic acid [3-((R)-1-{5-[5-chloro-3-fluoro-2-(5-methyl-[1,2,4]oxadiazol-3-yl)-phenyl]-3-fluoro-pyridin-2-yl}-ethylcarbamoyl)-oxetan-3-yl]-amide] |
| 0.1 nM | 1.4 nM | Cc1nc(-c2c(F)cc(Cl)cc2-c2cnc([C@@H](C)NC(=O)C3(NC(=O)c4cncc(N)c4)COC3)c(F)c2)no1 [Example 28, 5-Amino-N-[3-((R)-1-{5-[5-chloro-3-fluoro-2-(5-methyl-[1,2,4]oxadiazol-3-yl)-phenyl]-3-fluoro-pyridin-2-yl}-ethylcarbamoyl)-oxetan-3-yl]-nicotinamide] |
